Data from patent US20140357512A1, “HISTONE DEACETYLASE (HDAC) BIOMARKERS IN MULTIPLE MYELOMA” (priority 2013, published 2014).

Tested on: human myeloma cell line MM.1S
Assay: Biological pathway analysis of SILAC biomarker peptides against pathway database (broadinstitute gsea)
Experimental: Once biomarker peptides are identified for a specific drug by the SILAC method, the biomarker peptides may be compared to peptides/proteins in a biological pathway database in order to identify major biological pathways or functions implicated by the drug's action. A preferred pathway analysis website is at www dot broadinstitute dot org/gsea/index dot jsp.
This example describes the biological pathway analysis that was performed on each of Compound A, Compound B, and Tubastatin A.
Once biomarker peptides were identified for a specific drug (either Compound A, Compound B, or Tubastatin A) by the SILAC method in Example 1, the biomarker peptides were compared to peptides/proteins in the biological pathway database at www dot broadinstitute dot org/gsea/index dot jsp in order to identify major biological pathways or functions implicated by the drug's action.

## O=C(CCCCCCNC(=O)c1cnc(N(c2ccccc2)c2ccccc2)nc1)NO [Compound A, 2-(diphenylamino)-N-(7-(hydroxyamino)-7-oxoheptyl)pyrimidine-5-carboxamide]
Pathway_size 48
  Observed: number of genes in pathway REACTOME_PACKAGING_OF_TELOMERE_ENDS: 35
  Ratio observed/pathway size, REACTOME_PACKAGING_OF_TELOMERE_ENDS: 0.7292
Pathway_size 61
  Observed: number of genes in pathway REACTOME_RNA_POL_I_PROMOTER_OPENING: 49
  Ratio observed/pathway size, REACTOME_RNA_POL_I_PROMOTER_OPENING: 0.8033
Pathway_size 64
  Observed: number of genes in pathway REACTOME_DEPOSITION_OF_NEW_CENPA_CONTAINING_NUCLEOSOMES_AT_THE_CENTROMERE: 34
  Ratio observed/pathway size, REACTOME_DEPOSITION_OF_NEW_CENPA_CONTAINING_NUCLEOSOMES_AT_THE_CENTROMERE: 0.5312
Pathway_size 66
  Observed: number of genes in pathway […]_UNKNOWN: 32
  Ratio observed/pathway size, […]_UNKNOWN: 0.4848
Pathway_size 70
  Observed: number of genes in pathway GCM_TPT1: 37
  Ratio observed/pathway size, GCM_TPT1: 0.5286
Pathway_size 71
  Observed: number of genes in pathway REACTOME_MEIOTIC_SYNAPSIS: 35
  Ratio observed/pathway size, REACTOME_MEIOTIC_SYNAPSIS: 0.493
Pathway_size 75
  Observed: number of genes in pathway REACTOME_TELOMERE_MAINTENANCE: 36
  Ratio observed/pathway size, REACTOME_TELOMERE_MAINTENANCE: 0.48
Pathway_size 80
  Observed: number of genes in pathway STRUCTURAL_CONSTITUENT_OF_RIBOSOME: 33
  Ratio observed/pathway size, STRUCTURAL_CONSTITUENT_OF_RIBOSOME: 0.4125
Pathway_size 81
  Observed: number of genes in pathway MIPS_RIBOSOME_CYTOPLASMIC: 42
  Observed: number of genes in pathway REACTOME_AMYLOIDS: 49
  Ratio observed/pathway size, MIPS_RIBOSOME_CYTOPLASMIC: 0.5185
  Ratio observed/pathway size, REACTOME_AMYLOIDS: 0.6049
Pathway_size 84
  Observed: number of genes in pathway REACTOME_MEIOTIC_RECOMBINATION: 50
  Ratio observed/pathway size, REACTOME_MEIOTIC_RECOMBINATION: 0.5952
Pathway_size 86
  Observed: number of genes in pathway REACTOME_RNA_POL_I_TRANSCRIPTION: 50
  Ratio observed/pathway size, REACTOME_RNA_POL_I_TRANSCRIPTION: 0.5814
Pathway_size 88
  Observed: number of genes in pathway KEGG_RIBOSOME: 42
  Ratio observed/pathway size, KEGG_RIBOSOME: 0.4773
Pathway_size 102
  Observed: number of genes in pathway MORF_TPT1: 40
  Ratio observed/pathway size, MORF_TPT1: 0.3922
Pathway_size 104
  Observed: number of genes in pathway MIPS_NOP56P_ASSOCIATED_PRE_RRNA_COMPLEX: 44
  Ratio observed/pathway size, MIPS_NOP56P_ASSOCIATED_PRE_RRNA_COMPLEX: 0.4231
Pathway_size 112
  Observed: number of genes in pathway REACTOME_MEIOSIS: 50
  Ratio observed/pathway size, REACTOME_MEIOSIS: 0.4464
Pathway_size 116
  Observed: number of genes in pathway GCM_NPM1: 41
  Ratio observed/pathway size, GCM_NPM1: 0.3534
Pathway_size 119
  Observed: number of genes in pathway REACTOME_RNA_POL_I_RNA_POL_III_AND_MITOCHONDRIAL_TRANSCRIPTION: 50
  Ratio observed/pathway size, REACTOME_RNA_POL_I_RNA_POL_III_AND_MITOCHONDRIAL_TRANSCRIPTION: 0.4202
Pathway_size 121
  Observed: number of genes in pathway GNF2_EIF3S6: 41
  Ratio observed/pathway size, GNF2_EIF3S6: 0.3388
Pathway_size 124
  Observed: number of genes in pathway GCM_ACTG1: 39
  Ratio observed/pathway size, GCM_ACTG1: 0.3145
Pathway_size 138
  Observed: number of genes in pathway MORF_ACTG1: 53
  Ratio observed/pathway size, MORF_ACTG1: 0.3841
Pathway_size 139
  Observed: number of genes in pathway KEGG_SYSTEMIC_LUPUS_ERYTHEMATOSUS: 54
  Ratio observed/pathway size, KEGG_SYSTEMIC_LUPUS_ERYTHEMATOSUS: 0.3885
Pathway_size 145
  Observed: number of genes in pathway REACTOME_PEPTIDE_CHAIN_ELONGATION: 41
  Ratio observed/pathway size, REACTOME_PEPTIDE_CHAIN_ELONGATION: 0.2828
Pathway_size 154
  Observed: number of genes in pathway MORF_NME2: 48
  Ratio observed/pathway size, MORF_NME2: 0.3117
Pathway_size 161
  Observed: number of genes in pathway REACTOME_INFLUENZA_VIRAL_RNA_TRANSCRIPTION_AND_REPLICATION: 42
  Ratio observed/pathway size, REACTOME_INFLUENZA_VIRAL_RNA_TRANSCRIPTION_AND_REPLICATION: 0.2609
Pathway_size 162
  Observed: number of genes in pathway MORF_NPM1: 59
  Ratio observed/pathway size, MORF_NPM1: 0.3642
Pathway_size 166
  Observed: number of genes in pathway REACTOME_3_UTR_MEDIATED_TRANSLATIONAL_REGULATION: 43
  Ratio observed/pathway size, REACTOME_3_UTR_MEDIATED_TRANSLATIONAL_REGULATION: 0.259
Pathway_size 167
  Observed: number of genes in pathway REACTOME_NONSENSE_MEDIATED_DECAY_ENHANCED_BY_THE_EXON_JUNCTION_COMPLEX: 41
  Ratio observed/pathway size, REACTOME_NONSENSE_MEDIATED_DECAY_ENHANCED_BY_THE_EXON_JUNCTION_COMPLEX: 0.2455
Pathway_size 170
  Observed: number of genes in pathway REACTOME_SRP_DEPENDENT_COTRANSLATIONAL_PROTEIN_TARGETING_TO_MEMBRANE: 46
  Ratio observed/pathway size, REACTOME_SRP_DEPENDENT_COTRANSLATIONAL_PROTEIN_TARGETING_TO_MEMBRANE: 0.2706
Pathway_size 195
  Observed: number of genes in pathway REACTOME_INFLUENZA_LIFE_CYCLE: 47
  Ratio observed/pathway size, REACTOME_INFLUENZA_LIFE_CYCLE: 0.241
Pathway_size 197
  Observed: number of genes in pathway MORF_ANP32B: 43
  Ratio observed/pathway size, MORF_ANP32B: 0.2183
Pathway_size 207
  Observed: number of genes in pathway REACTOME_TRANSCRIPTION: 53
  Ratio observed/pathway size, REACTOME_TRANSCRIPTION: 0.256
Pathway_size 211
  Observed: number of genes in pathway REACTOME_TRANSLATION: 48
  Ratio observed/pathway size, REACTOME_TRANSLATION: 0.2275
Pathway_size 238
  Observed: number of genes in pathway MORF_UBE2I: 55
  Ratio observed/pathway size, MORF_UBE2I: 0.2311
Pathway_size 268
  Observed: number of genes in pathway MORF_RAN: 53
  Ratio observed/pathway size, MORF_RAN: 0.1978
Pathway_size 318
  Observed: number of genes in pathway MODULE_151: 61
  Ratio observed/pathway size, MODULE_151: 0.1918
Pathway_size 320
  Observed: number of genes in pathway MODULE_83: 65
  Ratio observed/pathway size, MODULE_83: 0.2031
Pathway_size 338
  Observed: number of genes in pathway MODULE_114: 64
  Ratio observed/pathway size, MODULE_114: 0.1893
Pathway_size 389
  Observed: number of genes in pathway HSIAO_HOUSEKEEPING_GENES: 87
  Ratio observed/pathway size, HSIAO_HOUSEKEEPING_GENES: 0.2236
Pathway_size 429
  Observed: number of genes in pathway MOOTHA_HUMAN_MITODB_6_2002: 66
  Ratio observed/pathway size, MOOTHA_HUMAN_MITODB_6_2002: 0.1538
Pathway_size 447
  Observed: number of genes in pathway MOOTHA_MITOCHONDRIA: 57
  Ratio observed/pathway size, MOOTHA_MITOCHONDRIA: 0.1275
Pathway_size 496
  Observed: number of genes in pathway REACTOME_METABOLISM_OF_PROTEINS: 69
  Ratio observed/pathway size, REACTOME_METABOLISM_OF_PROTEINS: 0.1391
Pathway_size 681
  Observed: number of genes in pathway KIM_BIPOLAR_DISORDER_OLIGODENDROCYTE_DENSITY_CORR_UP: 64
  Ratio observed/pathway size, KIM_BIPOLAR_DISORDER_OLIGODENDROCYTE_DENSITY_CORR_UP: 0.09398
Pathway_size 841
  Observed: number of genes in pathway MARTENS_TRETINOIN_RESPONSE_DN: 69
  Ratio observed/pathway size, MARTENS_TRETINOIN_RESPONSE_DN: 0.08205
Pathway_size 870
  Observed: number of genes in pathway GRADE_COLON_CANCER_UP: 75
  Ratio observed/pathway size, GRADE_COLON_CANCER_UP: 0.08621
Pathway_size 1102
  Observed: number of genes in pathway DANG_BOUND_BY_MYC: 88
  Ratio observed/pathway size, DANG_BOUND_BY_MYC: 0.07985
Pathway_size 1237
  Observed: number of genes in pathway BLALOCK_ALZHEIMERS_DISEASE_DN: 81
  Ratio observed/pathway size, BLALOCK_ALZHEIMERS_DISEASE_DN: 0.06548
Pathway_size 1383
  Observed: number of genes in pathway CYTOPLASMIC_PART: 96
  Ratio observed/pathway size, CYTOPLASMIC_PART: 0.06941
Pathway_size 1651
  Observed: number of genes in pathway PUJANA_BRCA1_PCC_NETWORK: 107
  Ratio observed/pathway size, PUJANA_BRCA1_PCC_NETWORK: 0.06481
Pathway_size 2130
  Observed: number of genes in pathway CYTOPLASM: 117
  Ratio observed/pathway size, CYTOPLASM: 0.05493
